Reference: patent US4619941A, “N-[(1H-imidazol-1-yl)alkyl]-1H-indolecarboxamides useful as thromboxane synthetase inhibitors and antihypertensive agents” (American Cyanamid Company, priority 1984, dated 1986)

How the values were obtained:
thromboxane synthetase = target: T1, thromboxane synthetase (Rattus norvegicus, UniProt P49430); test: Inhibition of thromboxane (TXA2) formation, determined as TXB2 formed by washed SHR platelets (direct RIA); assay type: cell-based, Okamoto-Aoki spontaneously hypertensive rats (SHR); conditions: Dose 10^-4 M, 10 minutes at 37° C., pH 7.4
T1 construct: The platelets were isolated by centrifuging the PRP for 10 minutes at 1060 xg; endogenous in cells; host or cells: washed platelets from arterial blood of Okamoto-Aoki spontaneously hypertensive rats (Taconic Farms), 19 to 24 weeks old
T1 sequence (P49430 1-533): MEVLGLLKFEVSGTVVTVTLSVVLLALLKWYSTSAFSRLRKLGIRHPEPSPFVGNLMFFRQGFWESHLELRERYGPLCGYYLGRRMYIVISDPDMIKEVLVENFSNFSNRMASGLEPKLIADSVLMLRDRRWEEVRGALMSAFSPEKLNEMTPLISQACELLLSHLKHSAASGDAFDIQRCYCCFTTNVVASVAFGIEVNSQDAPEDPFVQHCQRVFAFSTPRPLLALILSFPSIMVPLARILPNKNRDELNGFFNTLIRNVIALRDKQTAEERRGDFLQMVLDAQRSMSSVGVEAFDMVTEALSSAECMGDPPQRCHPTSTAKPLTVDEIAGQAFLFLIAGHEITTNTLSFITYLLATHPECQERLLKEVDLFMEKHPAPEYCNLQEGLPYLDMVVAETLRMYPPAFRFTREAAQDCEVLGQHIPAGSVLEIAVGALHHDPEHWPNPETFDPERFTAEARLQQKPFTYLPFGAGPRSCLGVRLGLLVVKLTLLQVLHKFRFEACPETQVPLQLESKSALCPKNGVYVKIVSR
Procedure: The inhibition of thromboxane (TXA2) formation was studied by determining the concentration of thromboxane B2 (TXB2), the stable hydrolysis product of TXA2.
The blood was diluted with 3 ml cold saline and centrifuged at room temperature for 15 minutes at 460 xg. The platelet rich plasma (PRP) was separated. The platelets were isolated by centrifuging the PRP for 10 minutes at 1060 xg and were washed in 4 ml cold oxygenated Krebs phosphate buffer, pH 7.4. the chilled platelets recovered from centrifuging at 800 xg for 10 minutes were resuspended in oxygenated Krebs phosphate buffer and diluted to contain 4.5-6.0×10^4 platelets/μl. […] The samples were incubated for 10 minutes at 37° C. in a metabolic shaker. The reaction was terminated by immersing the tubes in an ice bath and adding 50 μl of 0.5 M citric acid. The samples were centrifuged for 10 minutes in a refrigerated centrifuge and the supernatants thus obtained were decanted and stored at -20° C. The TXB2 content for each sample was determined by a direct radioimmunoassay (RIA) utilizing a TXB2 specific RIA kit purchased from New England Nuclear, Boston, MA and expressed as pg TXB2 formed minute^-1 sample^-1, from which the percent inhibition of TXB2 formation was calculated.

[1] = test system: spontaneously hypertensive rats of the Okamoto strain; test: Hypotensive activity in spontaneously hypertensive rats, mean arterial blood pressure (method of Chan and Poorvin); assay type: in vivo; conditions: by gavage, 100 mg/kg or less, second identical dose at 24 hours; measured 28 hours after initial dose; SHR average MABP 160±1.5 mm Hg
Procedure: Male, 16 week old, spontaneously hypertensive rats of the Okamoto strain, from Taconic Farms, Germantown, N.Y., having an average means arterial blood pressure of 160±1.5 mm of mercury are used in the test. One to three rats are used per test compound. A rat is dosed by gavage with a test compound, suspended in 2% pre-boiled starch at a concentration of 50 mg/ml, at a dose of 100 mg/kg of body weight or less with 0.9% sodium chloride loading at a dose of 25 ml/kg of body weight. A second identical dose of the test compound, without sodium chloride loading is given 24 hours later. At 28 hours after the initial dose the mean arterial blood pressure is measured by the method of Chan and Poorvin vide supra. The procedure is repeated in a second and third rat when necessary.

| SMILES | inhibition at 100 µM (thromboxane synthetase) | MABP (mean arterial blood pressure) [1] |
| --- | --- | --- |
| Cc1cn(CCCNC(=O)c2cc3cc(Cl)ccc3[nH]2)cn1 [5-Chloro-N-[3-(4-methyl-1H-imidazol-1-yl)propyl]-1H-indole-2-carboxamide] | 100% | 135 mm Hg |
| O=C(NCCCn1ccnc1-c1ccccc1)c1cc2ccccc2[nH]1 [N-[3-(2-Phenyl-1H-imidazol-1-yl)propyl]-1H-indole-2-carboxamide] | 91% |  |
| Cc1cn(CCCNC(=O)c2cc3ccccc3[nH]2)cn1 [N-[3-(4-Methyl-1H-imidazol-1-yl)propyl]-1H-indole-2-carboxamide] | 100% | 131 mm Hg |
| COc1ccc2[nH]c(C(=O)NCCCn3ccnc3C)cc2c1 [5-Methoxy-N-[3-(2-methyl-1H-imidazol-1-yl)propyl]-1H-indole-2-carboxamide] | 49% |  |
| CC(CNC(=O)c1cc2cc(Cl)ccc2[nH]1)Cn1ccnc1 (stereo not drawn) [5-Chloro-N-[3-(1H-imidazol-1-yl)-2-methylpropyl]-1Hindole-2carboxamide] | 100% | 123 mm Hg |
| Cc1nccn1CCCNC(=O)c1cc2ccccc2[nH]1 [N-[3-(2-Methyl-1H-imidazol-1-yl)propyl]-1H-indole2-carboxamide] | 44% |  |
| O=C(NCCCn1ccnc1)c1ccc2[nH]ccc2c1 [N-[3-(1H-Imidazol-1-yl)propyl]-1H-indole-5-carboxamide] |  | 133 mm Hg |
| COc1ccc2[nH]c(C(=O)NCCCCn3ccnc3)cc2c1 [5-Methoxy-N-[4-(1H-imidazol-1-yl)butyl]-1H-indole-2-carboxamide] | 100% | 130 mm Hg |
| O=C(NCCCCn1ccnc1)c1cc2ccccc2[nH]1 [N-[4-(1H-Imidazol-1-yl)butyl]-1H-indole-2-carboxamide] | 100% | 137 mm Hg |
| Cc1cn(CCCNC(=O)c2cc3ccccc3n2C)cn1 [1-Methyl-N-[3-(4-methyl-1H-imidazol-1-yl)propyl]-1H-indole-2-carboxamide] | 85% | 136 mm Hg |
| O=C(NCCCCCCCCn1ccnc1)c1cc2cc(Cl)ccc2[nH]1 [5-Chloro-N-[8-(1H-imidazol-1-yl)octyl]-1H-indole-2-carboxamide] | 66% |  |
| O=C(NCCCn1ccnc1)c1cc2cc(Cl)ccc2[nH]1 [5-Chloro-N-[3-(1H-imidazol-1-yl)propyl]-1H-indole-2-carboxamide] | 95% |  |
| O=C(NCCCn1ccnc1)c1cc2ccccc2[nH]1 [N-[3-(1H-Imidazol-1-yl)propyl]-1H-indole-2-carboxamide] | 94% | 114 mm Hg |
| Cn1c(C(=O)NCCCn2ccnc2)cc2ccccc21 [N-[3-(1H-Imidazol-1-yl)propyl]-1-methyl-1H-indole-2-carboxamide] | 88% |  |
| O=C(NCCCCn1ccnc1)c1cc2cc(Cl)ccc2[nH]1 [5-Chloro-N-[4-(1H-imidazol-1-yl)butyl]-1H-indole-2-carboxamide] |  | 118 mm Hg |
| CC(CCNC(=O)c1cc2cc(Cl)ccc2[nH]1)n1ccnc1 (stereo not drawn) [5-Chloro-N-[3-(1H-imidazol-1-yl)-butyl]-1H-indole-2-carboxamide] | 98% | 119 mm Hg |
| COc1ccc2[nH]c(C(=O)NCCCn3ccnc3)cc2c1 [N-[3-(1H-Imidazol-1-yl)propyl]-5-methoxy-1H-indole-2-carboxamide] | 96% |  |
| Cc1nccn1CCCNC(=O)c1cc2ccccc2n1C [1-Methyl-N-[3-(2-methyl-1H-imidazol-1-yl)-propyl]-1H-indole-2-carboxamide] | 56% |  |
| O=C(NCCCCCn1ccnc1)c1cc2cc(Cl)ccc2[nH]1 [5-Chloro-N-[5-(1H-imidazol-1-yl)pentyl]-1H-indole-2-carboxamide] |  | 124 mm Hg |
